From paper PMC11864979, “First-in-class ultralong-target-residence-time p38α inhibitors as a mitosis-targeted therapy for colorectal cancer” (Nature Cancer, 2025)
Where two headings read alike, the source gives them in different places.

Experiments:
Test in all cases: selectivity profiling in a panel of 340 wild-type kinases (Reaction Biology Europe)
Format in all cases: binding
340 wild-type kinases [1] = target: T1, 340 wild-type kinases (Homo sapiens, UniProt Q9NYV4)
T1 construct: purchased Reaction Biology Europe

340 wild-type kinases [2] = target: T2, 340 wild-type kinases (Homo sapiens, UniProt O15146)
T2 construct: purchased Reaction Biology Europe
T2 sequence (O15146 24-869): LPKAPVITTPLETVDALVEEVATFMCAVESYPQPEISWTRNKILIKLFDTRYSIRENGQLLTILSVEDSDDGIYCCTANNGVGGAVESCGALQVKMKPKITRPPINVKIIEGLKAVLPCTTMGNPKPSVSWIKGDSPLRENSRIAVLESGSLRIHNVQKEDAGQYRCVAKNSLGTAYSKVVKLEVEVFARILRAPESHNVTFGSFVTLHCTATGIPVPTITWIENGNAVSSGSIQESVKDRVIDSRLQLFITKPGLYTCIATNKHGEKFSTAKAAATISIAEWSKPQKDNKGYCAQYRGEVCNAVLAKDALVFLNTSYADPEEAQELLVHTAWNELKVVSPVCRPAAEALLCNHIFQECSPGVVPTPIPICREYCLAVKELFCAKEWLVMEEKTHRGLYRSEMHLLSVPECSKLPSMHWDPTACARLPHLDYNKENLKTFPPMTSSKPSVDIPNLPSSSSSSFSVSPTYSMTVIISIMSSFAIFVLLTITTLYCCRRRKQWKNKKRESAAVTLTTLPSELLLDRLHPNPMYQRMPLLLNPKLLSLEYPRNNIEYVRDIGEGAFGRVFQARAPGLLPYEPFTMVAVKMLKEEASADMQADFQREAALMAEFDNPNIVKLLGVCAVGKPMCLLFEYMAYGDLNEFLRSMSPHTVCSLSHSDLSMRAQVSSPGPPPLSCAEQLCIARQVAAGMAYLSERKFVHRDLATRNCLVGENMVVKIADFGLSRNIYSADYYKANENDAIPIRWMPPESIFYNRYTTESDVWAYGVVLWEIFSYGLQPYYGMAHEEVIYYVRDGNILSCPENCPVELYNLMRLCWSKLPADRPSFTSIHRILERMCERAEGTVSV

340 wild-type kinases [3] = target: T3, 340 wild-type kinases (Homo sapiens, UniProt O00506)
T3 construct: purchased Reaction Biology Europe

340 wild-type kinases [4] = target: T4, 340 wild-type kinases (Homo sapiens, UniProt Q5TCX8)
T4 construct: purchased Reaction Biology Europe

340 wild-type kinases [5] = target: T5, 340 wild-type kinases (Homo sapiens, UniProt P35916)
T5 construct: purchased Reaction Biology Europe

340 wild-type kinases [6] = target: T6, 340 wild-type kinases (Homo sapiens, UniProt P42345)
T6 construct: purchased Reaction Biology Europe

340 wild-type kinases [7] = target: T7, 340 wild-type kinases (Homo sapiens, UniProt Q9UHD2)
T7 construct: purchased Reaction Biology Europe
T7 sequence (Q9UHD2 1-729): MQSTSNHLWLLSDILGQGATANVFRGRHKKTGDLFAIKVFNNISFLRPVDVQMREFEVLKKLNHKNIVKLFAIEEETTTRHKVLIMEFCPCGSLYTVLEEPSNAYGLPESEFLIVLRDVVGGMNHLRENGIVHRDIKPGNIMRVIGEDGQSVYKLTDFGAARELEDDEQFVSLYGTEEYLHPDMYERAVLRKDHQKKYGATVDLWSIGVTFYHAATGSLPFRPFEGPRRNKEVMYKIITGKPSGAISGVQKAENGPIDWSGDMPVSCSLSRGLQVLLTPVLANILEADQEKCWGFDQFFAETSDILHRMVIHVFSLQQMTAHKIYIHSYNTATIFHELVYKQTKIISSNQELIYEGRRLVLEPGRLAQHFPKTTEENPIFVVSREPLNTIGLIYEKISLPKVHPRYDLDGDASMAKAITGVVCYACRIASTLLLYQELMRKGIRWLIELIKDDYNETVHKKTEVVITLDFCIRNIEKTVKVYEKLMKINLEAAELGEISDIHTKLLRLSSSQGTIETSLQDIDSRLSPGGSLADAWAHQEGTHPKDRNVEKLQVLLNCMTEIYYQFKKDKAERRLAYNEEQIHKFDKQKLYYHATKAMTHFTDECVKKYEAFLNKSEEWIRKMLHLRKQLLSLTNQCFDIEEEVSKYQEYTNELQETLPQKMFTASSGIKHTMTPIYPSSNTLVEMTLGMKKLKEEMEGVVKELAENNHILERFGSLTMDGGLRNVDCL

340 wild-type kinases [8] = target: T8, 340 wild-type kinases (Homo sapiens, UniProt Q16644)
T8 construct: purchased Reaction Biology Europe
T8 sequence (Q16644 whole entry): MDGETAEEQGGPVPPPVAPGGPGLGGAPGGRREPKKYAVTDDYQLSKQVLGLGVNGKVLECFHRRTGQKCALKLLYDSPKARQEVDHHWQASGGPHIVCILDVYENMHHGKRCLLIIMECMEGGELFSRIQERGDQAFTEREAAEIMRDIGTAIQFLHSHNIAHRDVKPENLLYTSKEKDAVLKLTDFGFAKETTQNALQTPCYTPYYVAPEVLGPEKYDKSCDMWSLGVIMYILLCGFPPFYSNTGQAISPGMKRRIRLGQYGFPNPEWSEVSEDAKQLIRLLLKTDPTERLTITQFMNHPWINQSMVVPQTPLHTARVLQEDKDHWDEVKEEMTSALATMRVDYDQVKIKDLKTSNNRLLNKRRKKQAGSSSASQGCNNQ

T1 sequence (Q9NYV4 whole entry): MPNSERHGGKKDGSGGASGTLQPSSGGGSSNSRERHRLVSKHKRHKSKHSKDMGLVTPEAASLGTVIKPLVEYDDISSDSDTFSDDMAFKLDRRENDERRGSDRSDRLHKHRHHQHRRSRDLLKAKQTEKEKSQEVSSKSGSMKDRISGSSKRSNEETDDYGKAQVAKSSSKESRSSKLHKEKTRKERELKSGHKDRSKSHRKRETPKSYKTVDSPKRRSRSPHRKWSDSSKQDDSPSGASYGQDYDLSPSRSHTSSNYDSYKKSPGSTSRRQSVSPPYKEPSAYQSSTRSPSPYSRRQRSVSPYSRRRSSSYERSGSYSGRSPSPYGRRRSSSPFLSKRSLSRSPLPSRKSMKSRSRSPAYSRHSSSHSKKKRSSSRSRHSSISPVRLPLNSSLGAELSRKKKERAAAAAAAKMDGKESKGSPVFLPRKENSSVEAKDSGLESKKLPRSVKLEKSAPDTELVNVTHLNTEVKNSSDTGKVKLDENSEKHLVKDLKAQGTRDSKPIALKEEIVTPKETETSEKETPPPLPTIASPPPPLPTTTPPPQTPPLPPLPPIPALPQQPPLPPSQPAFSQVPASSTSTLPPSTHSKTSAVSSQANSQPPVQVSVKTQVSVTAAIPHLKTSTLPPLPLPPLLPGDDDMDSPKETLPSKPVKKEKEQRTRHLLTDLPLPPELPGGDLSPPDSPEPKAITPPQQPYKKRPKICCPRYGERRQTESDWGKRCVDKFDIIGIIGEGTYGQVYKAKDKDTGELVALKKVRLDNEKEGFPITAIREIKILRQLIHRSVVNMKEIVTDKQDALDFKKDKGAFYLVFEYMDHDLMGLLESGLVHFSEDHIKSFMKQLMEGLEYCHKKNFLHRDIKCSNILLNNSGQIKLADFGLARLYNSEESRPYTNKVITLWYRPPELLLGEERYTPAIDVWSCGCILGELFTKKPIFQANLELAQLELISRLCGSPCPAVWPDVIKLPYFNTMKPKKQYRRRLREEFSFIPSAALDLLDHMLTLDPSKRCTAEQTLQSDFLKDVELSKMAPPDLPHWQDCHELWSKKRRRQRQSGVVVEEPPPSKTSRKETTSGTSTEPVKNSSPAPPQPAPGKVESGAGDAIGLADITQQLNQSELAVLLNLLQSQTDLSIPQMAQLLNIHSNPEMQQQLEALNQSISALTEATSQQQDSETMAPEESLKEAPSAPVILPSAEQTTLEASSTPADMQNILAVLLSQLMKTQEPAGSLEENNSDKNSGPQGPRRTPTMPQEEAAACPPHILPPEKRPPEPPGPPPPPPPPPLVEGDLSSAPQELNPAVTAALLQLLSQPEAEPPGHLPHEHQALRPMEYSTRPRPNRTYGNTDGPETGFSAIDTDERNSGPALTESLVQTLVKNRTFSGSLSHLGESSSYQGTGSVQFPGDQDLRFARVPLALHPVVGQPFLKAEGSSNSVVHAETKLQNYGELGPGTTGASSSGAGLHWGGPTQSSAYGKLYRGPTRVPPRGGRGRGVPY
T4 sequence (Q5TCX8 whole entry): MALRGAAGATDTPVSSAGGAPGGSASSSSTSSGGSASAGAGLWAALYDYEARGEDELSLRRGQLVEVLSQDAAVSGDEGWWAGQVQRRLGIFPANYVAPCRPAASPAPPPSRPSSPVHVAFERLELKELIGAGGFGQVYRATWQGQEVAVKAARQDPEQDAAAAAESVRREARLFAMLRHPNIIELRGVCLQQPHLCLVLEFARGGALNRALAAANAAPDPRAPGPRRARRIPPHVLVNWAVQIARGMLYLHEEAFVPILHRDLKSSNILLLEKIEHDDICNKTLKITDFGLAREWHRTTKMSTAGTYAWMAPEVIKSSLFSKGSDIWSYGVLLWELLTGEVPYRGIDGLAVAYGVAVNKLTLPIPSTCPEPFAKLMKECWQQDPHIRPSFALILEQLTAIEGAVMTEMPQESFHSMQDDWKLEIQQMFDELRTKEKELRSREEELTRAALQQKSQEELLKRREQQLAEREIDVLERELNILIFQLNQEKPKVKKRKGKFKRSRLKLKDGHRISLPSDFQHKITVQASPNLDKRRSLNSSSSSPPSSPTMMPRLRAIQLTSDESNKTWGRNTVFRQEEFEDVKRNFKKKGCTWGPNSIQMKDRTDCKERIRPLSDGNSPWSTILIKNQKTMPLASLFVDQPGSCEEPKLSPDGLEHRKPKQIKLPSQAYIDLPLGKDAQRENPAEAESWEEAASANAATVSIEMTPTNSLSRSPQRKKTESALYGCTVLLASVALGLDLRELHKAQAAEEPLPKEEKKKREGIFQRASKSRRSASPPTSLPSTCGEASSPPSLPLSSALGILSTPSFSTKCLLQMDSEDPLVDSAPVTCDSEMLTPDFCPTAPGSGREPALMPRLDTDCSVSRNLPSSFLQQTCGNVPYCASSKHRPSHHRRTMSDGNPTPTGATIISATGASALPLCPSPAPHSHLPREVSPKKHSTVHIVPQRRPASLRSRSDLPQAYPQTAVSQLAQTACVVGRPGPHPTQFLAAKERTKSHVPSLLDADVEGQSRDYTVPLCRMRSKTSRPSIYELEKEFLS
T3 sequence (O00506 whole entry): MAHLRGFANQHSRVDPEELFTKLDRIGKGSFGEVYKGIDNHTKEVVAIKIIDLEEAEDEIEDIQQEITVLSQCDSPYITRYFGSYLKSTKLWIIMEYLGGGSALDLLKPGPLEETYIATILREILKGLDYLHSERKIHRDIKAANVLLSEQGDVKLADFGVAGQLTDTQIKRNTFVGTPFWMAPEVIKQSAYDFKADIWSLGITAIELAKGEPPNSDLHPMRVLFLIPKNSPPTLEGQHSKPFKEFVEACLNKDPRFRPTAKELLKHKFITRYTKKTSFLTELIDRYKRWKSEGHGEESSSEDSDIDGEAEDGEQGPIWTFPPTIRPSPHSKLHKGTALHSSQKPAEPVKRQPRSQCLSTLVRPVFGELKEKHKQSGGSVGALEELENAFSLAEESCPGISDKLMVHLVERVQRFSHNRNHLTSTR
T5 sequence (P35916 25-1363): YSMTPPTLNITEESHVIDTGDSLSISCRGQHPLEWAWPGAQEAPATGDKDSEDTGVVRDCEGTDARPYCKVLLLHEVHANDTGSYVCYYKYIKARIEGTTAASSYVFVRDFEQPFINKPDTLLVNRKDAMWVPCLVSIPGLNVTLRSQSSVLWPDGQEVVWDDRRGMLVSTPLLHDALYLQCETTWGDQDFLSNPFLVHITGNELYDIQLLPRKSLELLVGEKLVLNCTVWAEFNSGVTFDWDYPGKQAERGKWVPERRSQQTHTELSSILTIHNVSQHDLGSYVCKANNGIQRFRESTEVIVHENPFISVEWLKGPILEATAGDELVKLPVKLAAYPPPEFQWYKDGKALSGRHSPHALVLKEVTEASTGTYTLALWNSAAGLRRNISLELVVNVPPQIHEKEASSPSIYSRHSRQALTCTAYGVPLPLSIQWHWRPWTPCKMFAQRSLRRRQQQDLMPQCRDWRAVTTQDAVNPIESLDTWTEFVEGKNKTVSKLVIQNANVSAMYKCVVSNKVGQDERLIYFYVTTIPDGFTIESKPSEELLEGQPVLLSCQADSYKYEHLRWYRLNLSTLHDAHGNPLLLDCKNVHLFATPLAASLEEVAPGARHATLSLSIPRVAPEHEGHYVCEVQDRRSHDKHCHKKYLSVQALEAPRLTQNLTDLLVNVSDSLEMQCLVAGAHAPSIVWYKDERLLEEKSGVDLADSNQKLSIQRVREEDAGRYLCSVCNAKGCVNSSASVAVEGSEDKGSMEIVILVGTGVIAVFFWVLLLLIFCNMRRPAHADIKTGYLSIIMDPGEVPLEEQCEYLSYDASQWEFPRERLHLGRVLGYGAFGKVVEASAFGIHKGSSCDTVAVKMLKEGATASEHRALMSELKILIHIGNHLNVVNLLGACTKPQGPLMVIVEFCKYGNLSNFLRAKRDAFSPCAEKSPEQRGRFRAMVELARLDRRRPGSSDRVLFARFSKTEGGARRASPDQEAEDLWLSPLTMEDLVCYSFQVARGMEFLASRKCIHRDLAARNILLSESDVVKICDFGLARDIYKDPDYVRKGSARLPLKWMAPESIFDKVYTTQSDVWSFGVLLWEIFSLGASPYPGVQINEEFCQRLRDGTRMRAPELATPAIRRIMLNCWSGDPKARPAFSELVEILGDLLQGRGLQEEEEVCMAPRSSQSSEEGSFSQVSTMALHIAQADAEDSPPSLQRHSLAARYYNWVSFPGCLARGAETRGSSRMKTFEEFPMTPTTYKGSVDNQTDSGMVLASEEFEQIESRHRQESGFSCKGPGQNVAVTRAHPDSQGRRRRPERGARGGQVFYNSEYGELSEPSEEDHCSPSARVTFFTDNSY

## CNC(=O)c1ccc2c(c1)C(=O)c1ccc(Nc3ccc(F)c(NC(=O)C4CC4)c3)cc1CC2 [Compound 2015]
340 wild-type kinases [1]; 0.2 µM 2015, read-out: CDK12/CycK residual activity
  remaining activity at 0.2 µM: 112%
340 wild-type kinases [1]; 1 µM 2015, read-out: CDK12/CycK residual activity
  remaining activity at 1 µM: 103%
340 wild-type kinases [1]; CDK12/CycK, 0.2 µM, read-out: residual activity
  remaining activity at 0.2 µM: 112%
340 wild-type kinases [1]; CDK12/CycK, 1 µM, read-out: residual activity
  remaining activity at 1 µM: 103%
340 wild-type kinases [2]; 0.2 µM 2015, read-out: MUSK residual activity
  remaining activity at 0.2 µM: 87.5%
340 wild-type kinases [2]; 1 µM 2015, read-out: MUSK residual activity
  remaining activity at 1 µM: 87.3%
340 wild-type kinases [2]; MUSK, 0.2 µM, read-out: residual activity
  remaining activity at 0.2 µM: 87.5%
340 wild-type kinases [2]; MUSK, 1 µM, read-out: residual activity
  remaining activity at 1 µM: 87.3%
340 wild-type kinases [3]; 0.2 µM 2015, read-out: STK25 residual activity
  remaining activity at 0.2 µM: 88.2%
340 wild-type kinases [3]; 1 µM 2015, read-out: STK25 residual activity
  remaining activity at 1 µM: 83.6%
340 wild-type kinases [3]; STK25, 0.2 µM, read-out: residual activity
  remaining activity at 0.2 µM: 88.2%
340 wild-type kinases [3]; STK25, 1 µM, read-out: residual activity
  remaining activity at 1 µM: 83.6%
340 wild-type kinases [4]; 0.2 µM 2015, read-out: MLK4 residual activity
  remaining activity at 0.2 µM: 96.4%
340 wild-type kinases [4]; 1 µM 2015, read-out: MLK4 residual activity
  remaining activity at 1 µM: 87.1%
340 wild-type kinases [4]; MLK4, 0.2 µM, read-out: residual activity
  remaining activity at 0.2 µM: 96.4%
340 wild-type kinases [4]; MLK4, 1 µM, read-out: residual activity
  remaining activity at 1 µM: 87.1%
340 wild-type kinases [5]; 0.2 µM 2015, read-out: VEGFR3 residual activity
  remaining activity at 0.2 µM: 109%
340 wild-type kinases [5]; 1 µM 2015, read-out: VEGFR3 residual activity
  remaining activity at 1 µM: 94.2%
340 wild-type kinases [5]; VEGFR3, 0.2 µM, read-out: residual activity
  remaining activity at 0.2 µM: 109%
340 wild-type kinases [5]; VEGFR3, 1 µM, read-out: residual activity
  remaining activity at 1 µM: 94.2%
340 wild-type kinases [6]; 0.2 µM 2015, read-out: MTOR residual activity
  remaining activity at 0.2 µM: 97.9%
340 wild-type kinases [6]; 1 µM 2015, read-out: MTOR residual activity
  remaining activity at 1 µM: 101%
340 wild-type kinases [6]; MTOR, 0.2 µM, read-out: residual activity
  remaining activity at 0.2 µM: 97.9%
340 wild-type kinases [6]; MTOR, 1 µM, read-out: residual activity
  remaining activity at 1 µM: 101%
340 wild-type kinases [7]; 0.2 µM 2015, read-out: TBK1 residual activity
  remaining activity at 0.2 µM: 120%
340 wild-type kinases [7]; 1 µM 2015, read-out: TBK1 residual activity
  remaining activity at 1 µM: 101%
340 wild-type kinases [7]; TBK1, 0.2 µM, read-out: residual activity
  remaining activity at 0.2 µM: 120%
340 wild-type kinases [7]; TBK1, 1 µM, read-out: residual activity
  remaining activity at 1 µM: 101%
340 wild-type kinases [8]; 0.2 µM 2015, read-out: MAPKAPK3 residual activity
  remaining activity at 0.2 µM: 97.3%
340 wild-type kinases [8]; 1 µM 2015, read-out: MAPKAPK3 residual activity
  remaining activity at 1 µM: 86.1%
340 wild-type kinases [8]; MAPKAPK3, 0.2 µM, read-out: residual activity
  remaining activity at 0.2 µM: 97.3%
340 wild-type kinases [8]; MAPKAPK3, 1 µM, read-out: residual activity
  remaining activity at 1 µM: 86.1%
